Laboratory results reported in PMC3551614 (Journal of the American Chemical Society, 2012).
Values joined by “and” are separate entries in the source; they are usually repeats but may differ in a detail not shown here. Equal values may be shown once. Read-outs that look alike come from different tables or passages of the source. Marks after values point to notes of the source that are not given here. Numbered stars: 1 amine (or outer) side, 2 acyl side, 3 side chain; on linkers, the order of the positions; unused ones are H or OH. Bridge positions count the residues as written; N and C are the ends. Square brackets hold non-standard residues; d marks the D form. Ends that are not written are not given here. Peptide text beside a SMILES is read from it. β3hW = N[C@H](CC(=O)O)Cc1c[nH]c2ccccc12; X1 = O=C([C@H]1CNC[C@@H]1N[*:1])[*:2]; β3hE = N[C@@H](CCC(=O)O)CC(=O)O; β3hN = NC(=O)C[C@H](N)CC(=O)O; β3hL = CC(C)C[C@H](N)CC(=O)O; Nle = CCCC[C@H](N)C(=O)O

What was measured:
[1] = target: proteinase K (Parengyodontium album, UniProt P06873); assay: proteinase K degradation; conditions: for stability to proteinase K relative to v114*: ratio of t1/2 to that of v114*, standard conditions
[2] = test system: human umbilical vein endothelial cells (HUVECs); assay: VEGF-induced HUVEC proliferation; conditions: 10 ng/mL VEGF; tested above and below the measured Ki
[3] = toxicity control studies; conditions: at the inhibitory concentrations
[4] = target: T1, homodimeric VEGF165 (Homo sapiens, UniProt P15692); assay: competition fluorescence polarization; format: binding
T1 sequence (P15692 1-191 isoform P15692-4): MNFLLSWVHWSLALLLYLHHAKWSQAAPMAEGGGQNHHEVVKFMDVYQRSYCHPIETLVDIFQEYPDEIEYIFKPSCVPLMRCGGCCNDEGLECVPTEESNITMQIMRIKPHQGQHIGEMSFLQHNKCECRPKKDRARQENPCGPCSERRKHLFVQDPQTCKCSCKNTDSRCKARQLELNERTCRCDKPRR

[5] = test system: human umbilical vein endothelial cells (HUVECs); conditions: cited from earlier work
[6] = target: T2, v114 (disulfide 5-15); assay: competition fluorescence polarization
T2 chain: VEPNCDIHVMWEWECFERL

[7] = target: v107; assay: competition

proteinase K, sequence (P06873 106-384): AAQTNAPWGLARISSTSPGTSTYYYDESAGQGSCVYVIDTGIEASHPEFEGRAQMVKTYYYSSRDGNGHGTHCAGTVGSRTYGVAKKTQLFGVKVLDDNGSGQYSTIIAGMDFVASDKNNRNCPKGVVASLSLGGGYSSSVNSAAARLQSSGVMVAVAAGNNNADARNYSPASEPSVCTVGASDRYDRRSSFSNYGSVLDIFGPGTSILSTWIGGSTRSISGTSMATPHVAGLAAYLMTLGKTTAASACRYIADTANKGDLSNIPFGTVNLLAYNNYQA

For `CCCC[C@@H]1NC(=O)[C@H](C(C)C)NC(=O)[C@H](Cc2c[nH]cn2)NC(=O)[C@H]([C@@H](C)CC)NC(=O)[C@H](CC(=O)O)NC(=O)[C@@H](NC(=O)C[C@H](CC(N)=O)NC(=O)[C@@H]2CCCN2C(=O)C[C@H](CCC(=O)O)NC(=O)[C@@H](N)C(C)C)CSSC[C@@H](C(=O)N[C@@H](Cc2ccccc2)C(=O)N[C@H]2CNC[C@@H]2C(=O)N[C@@H](CCCNC(=N)N)C(=O)N[C@H](CC(N)=O)CC(C)C)NC(=O)[C@H](CCC(=O)O)NC(=O)[C@H](Cc2c[nH]c3ccccc23)NC(=O)C[C@H](CCC(=O)O)NC(=O)C[C@H](Cc2c[nH]c3ccccc23)NC1=O` [compound 4] (H-V[β3hE]P[β3hN]CDIHV[Nle][β3hW][β3hE]WECF[X1]R[β3hL]-NH2; disulfide 5-15; N-terminus and C-terminus assumed), which “resistance to proteolysis relative to 3” value [1] is on record?
Its value is greater than 10 fold.

What about the “stability to proteinase K relative to v114*” value ([1]; proteinase K) of the same molecule?
Its value is roughly 190 fold.

What about the “inhibition of VEGF-stimulated HUVEC proliferation, potency in words” value [2] of the same molecule?
The value was “less potent than v114*”.

What about the toxicity [3] of the same molecule?
Its toxicity is “not toxic”.

And the “affinity for VEGF lower than that of 3” value [4]?
Its value is ~ 3 fold.

And the “loss of affinity for VEGF (higher Ki) relative to v114*” value (from here on “loss … (higher Ki) relative to v114*”) [4]?
Its value is ~ 77 fold.

With `CCCC[C@@H]1NC(=O)[C@H](C(C)C)NC(=O)[C@H](Cc2c[nH]cn2)NC(=O)[C@H]([C@@H](C)CC)NC(=O)[C@H](CC(=O)O)NC(=O)[C@@H](NC(=O)[C@H](CC(N)=O)NC(=O)[C@@H]2CCCN2C(=O)C[C@H](CCC(=O)O)NC(=O)[C@@H](N)C(C)C)CSSC[C@@H](C(=O)N[C@@H](Cc2ccccc2)C(=O)N[C@H]2CNC[C@@H]2C(=O)N[C@@H](CCCNC(=N)N)C(=O)N[C@H](CC(N)=O)CC(C)C)NC(=O)[C@H](CCC(=O)O)NC(=O)[C@H](Cc2c[nH]c3ccccc23)NC(=O)C[C@H](CCC(=O)O)NC(=O)[C@H](Cc2c[nH]c3ccccc23)NC1=O` [compound 2] (H-V[β3hE]PNCDIHV[Nle]W[β3hE]WECF[X1]R[β3hL]-NH2; disulfide 5-15; N-terminus and C-terminus assumed) as the molecule, how does the “loss … (higher Ki) relative to v114*” value ([4]; ratio of Ki to Ki of v114*) read?
The value was 12 fold.

For `CCCC[C@@H]1NC(=O)[C@H](C(C)C)NC(=O)[C@H](Cc2c[nH]cn2)NC(=O)[C@H]([C@@H](C)CC)NC(=O)[C@H](CC(=O)O)NC(=O)[C@@H](NC(=O)C[C@H](CC(N)=O)NC(=O)[C@@H]2CCCN2C(=O)C[C@H](CCC(=O)O)NC(=O)[C@@H](N)C(C)C)CSSC[C@@H](C(=O)N[C@@H](Cc2ccccc2)C(=O)N[C@H]2CNC[C@@H]2C(=O)N[C@@H](CCCNC(=N)N)C(=O)N[C@H](CC(N)=O)CC(C)C)NC(=O)[C@H](CCC(=O)O)NC(=O)[C@H](Cc2c[nH]c3ccccc23)NC(=O)C[C@H](CCC(=O)O)NC(=O)[C@H](Cc2c[nH]c3ccccc23)NC1=O` [compound 3] (H-V[β3hE]P[β3hN]CDIHV[Nle]W[β3hE]WECF[X1]R[β3hL]-NH2; disulfide 5-15; N-terminus and C-terminus assumed), which principal cleavage site ([1]; proteinase K, mass spectroscopic analysis) is on record?
The principal cleavage site was “between ^nL10 and W11”.

What about the “stability to proteinase K relative to v114*” value ([1]; proteinase K) of the same molecule?
The value was 15 fold.

What about the “inhibition of VEGF-stimulated HUVEC proliferation, potency in words” value [2] of the same molecule?
Its value is “less potent than v114*”.

What about the toxicity [3] of the same molecule?
Its toxicity is “not toxic”.

And the “loss … (higher Ki) relative to v114*” value ([4]; ratio of Ki to Ki of v114*)?
Its value is 27 fold and ~ 27 fold.

Which “inhibition of VEGF-induced HUVEC proliferation” value [5] does the source give for `CC[C@H](C)[C@@H]1NC(=O)[C@H](CC(=O)O)NC(=O)[C@@H](NC(=O)[C@H](CC(N)=O)NC(=O)[C@@H]2CCCN2C(=O)[C@H](CCC(=O)O)NC(=O)[C@@H](N)C(C)C)CSSC[C@@H](C(=O)N[C@@H](Cc2ccccc2)C(=O)N[C@@H](CCC(=O)O)C(=O)N[C@@H](CCCNC(=N)N)C(=O)N[C@@H](CC(C)C)C(N)=O)NC(=O)[C@H](CCC(=O)O)NC(=O)[C@H](Cc2c[nH]c3ccccc23)NC(=O)[C@H](CCC(=O)O)NC(=O)[C@H](Cc2c[nH]c3ccccc23)NC(=O)[C@H](CCSC)NC(=O)[C@H](C(C)C)NC(=O)[C@H](Cc2c[nH]cn2)NC1=O` [v114] (H-VEPNCDIHVMWEWECFERL-NH2; disulfide 5-15; N-terminus and C-terminus assumed) here?
The value was “inhibits”.

B1: VEGF165 VEGF165 (protein)
chain: APMAEGGGQNHHEVVKFMDVYQRSYCHPIETLVDIFQEYPDEIEYIFKPSCVPLMRCGGCCNDEGLECVPTEESNITMQIMRIKPHQGQHIGEMSFLQHNKCECRPKKDRARQEKKSVRGKGKGQKRKRKKSRYKSWSVPCGPCSERRKHLFVQDPQTCKCSCKNTDSRCKARQLELNERTCRCDKPRR
With B1 as the molecule, how does the Ki [6] read?
Its Ki is 70 nM.

And the Ki [7]?
Its Ki is 600 nM.
